For one test, the target named is IKZF1 (Homo sapiens (Human), UniProt Q13422+Q96SW2). Put plainly: In vitro IKZF1 HiBit Assay (HEK293T Flp-in-HiBiT-IKZF1 stable cell line). The settings on record: HEK293T Flp-in-HiBiT-IKZF1 stable cell line, 6 hrs incubation; for DC50: read-out: IKZF1 HiBit DC50; for Dmax: HEK-293T, read-out: IKZF1 HiBit Dmax (%). The class given is cell-based. Put shortly: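 HEK293T Flp-in cells carrying N-terminal HiBiT-tagged IKZF1 were exposed to compound (0.1% DMSO) for 6 h at 3000 cells/well. HiBiT luminescence was read after lytic LgBiT detection. DC50 and Dmax were taken from DMSO-normalized dose-response curves.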
IKZF1, sequence (Q13422 whole entry): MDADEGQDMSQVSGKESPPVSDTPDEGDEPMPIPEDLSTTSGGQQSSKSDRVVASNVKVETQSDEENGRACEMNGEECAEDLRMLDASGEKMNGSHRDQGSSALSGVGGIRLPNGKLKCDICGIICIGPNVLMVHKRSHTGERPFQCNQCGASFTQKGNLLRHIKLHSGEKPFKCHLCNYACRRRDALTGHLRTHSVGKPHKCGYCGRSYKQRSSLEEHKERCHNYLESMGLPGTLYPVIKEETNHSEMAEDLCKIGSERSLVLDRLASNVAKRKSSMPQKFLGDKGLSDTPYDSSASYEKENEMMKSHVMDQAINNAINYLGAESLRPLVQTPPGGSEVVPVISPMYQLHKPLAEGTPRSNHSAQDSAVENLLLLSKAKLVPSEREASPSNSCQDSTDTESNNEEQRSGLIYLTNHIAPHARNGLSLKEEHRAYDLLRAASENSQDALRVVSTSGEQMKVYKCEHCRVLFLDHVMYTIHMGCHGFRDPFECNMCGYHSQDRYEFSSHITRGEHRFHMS
IKZF1, sequence (Q96SW2 whole entry): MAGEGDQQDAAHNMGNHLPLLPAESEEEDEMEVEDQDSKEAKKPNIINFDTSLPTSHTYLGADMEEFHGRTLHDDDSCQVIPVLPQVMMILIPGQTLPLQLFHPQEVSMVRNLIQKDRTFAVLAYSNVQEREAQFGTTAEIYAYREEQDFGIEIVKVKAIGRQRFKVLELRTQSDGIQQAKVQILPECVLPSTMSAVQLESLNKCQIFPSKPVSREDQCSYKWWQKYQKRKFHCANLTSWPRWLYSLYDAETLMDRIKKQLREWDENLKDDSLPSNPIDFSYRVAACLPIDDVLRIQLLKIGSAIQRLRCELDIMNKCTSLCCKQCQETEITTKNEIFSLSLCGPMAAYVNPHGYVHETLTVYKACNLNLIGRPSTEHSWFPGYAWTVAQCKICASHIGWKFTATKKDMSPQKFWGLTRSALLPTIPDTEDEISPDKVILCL
IKZF1, sequence (Q16531 2-1140 partner): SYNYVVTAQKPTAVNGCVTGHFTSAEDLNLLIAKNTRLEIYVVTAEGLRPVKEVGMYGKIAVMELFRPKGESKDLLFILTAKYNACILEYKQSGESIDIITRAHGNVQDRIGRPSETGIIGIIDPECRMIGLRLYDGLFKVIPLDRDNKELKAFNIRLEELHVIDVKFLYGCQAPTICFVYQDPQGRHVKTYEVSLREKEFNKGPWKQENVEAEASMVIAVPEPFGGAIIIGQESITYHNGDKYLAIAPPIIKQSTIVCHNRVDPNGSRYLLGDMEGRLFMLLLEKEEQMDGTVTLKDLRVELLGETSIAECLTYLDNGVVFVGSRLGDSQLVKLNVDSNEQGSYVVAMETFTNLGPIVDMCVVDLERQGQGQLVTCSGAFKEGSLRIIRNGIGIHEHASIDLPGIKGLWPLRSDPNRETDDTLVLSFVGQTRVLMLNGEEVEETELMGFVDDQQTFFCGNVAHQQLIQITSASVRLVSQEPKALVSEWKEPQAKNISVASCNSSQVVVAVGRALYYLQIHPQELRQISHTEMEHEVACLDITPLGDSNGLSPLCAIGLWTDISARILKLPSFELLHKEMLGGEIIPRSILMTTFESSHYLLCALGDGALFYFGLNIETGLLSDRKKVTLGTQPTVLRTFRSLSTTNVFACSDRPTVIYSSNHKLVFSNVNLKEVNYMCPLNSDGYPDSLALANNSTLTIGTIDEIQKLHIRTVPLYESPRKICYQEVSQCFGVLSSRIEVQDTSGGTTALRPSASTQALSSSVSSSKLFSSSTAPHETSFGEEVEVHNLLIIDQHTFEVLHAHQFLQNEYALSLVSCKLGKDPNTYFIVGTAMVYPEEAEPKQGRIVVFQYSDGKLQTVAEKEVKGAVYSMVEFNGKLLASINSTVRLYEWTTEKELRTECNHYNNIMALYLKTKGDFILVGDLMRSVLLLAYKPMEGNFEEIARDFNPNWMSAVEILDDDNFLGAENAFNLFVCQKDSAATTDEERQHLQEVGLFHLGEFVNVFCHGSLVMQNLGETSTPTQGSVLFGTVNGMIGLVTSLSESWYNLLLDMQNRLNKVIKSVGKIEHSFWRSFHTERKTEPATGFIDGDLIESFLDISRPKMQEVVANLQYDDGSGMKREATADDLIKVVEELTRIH
(In general: With HiBiT, luminescence reflects the tagged protein that the partner subunit can reach.)

Another test deals with IKZF2 (Homo sapiens (Human), UniProt Q96SW2+Q9UKS7). The test can be described thus: In vitro IKZF2 HiBit Assay (HEK293T Flp-in-HiBiT cells). The test is classed as cell-based. The settings on record: HEK293T Flp-in-HiBiT cells, 6 hrs incubation; for DC50: read-out: IKZF2 HiBit DC50; for Dmax: HEK-293T, read-out: IKZF2 HiBit Dmax (%). Put shortly:
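HEK293T Flp-in cells carrying an endogenous N-terminal HiBiT tag on IKZF2 were exposed to compound for 6 h at 0.1% DMSO. The dilution series was 11 doses at 3-fold, diluted from 1 mM. Nano-Glo HiBiT lytic luminescence, normalized to DMSO, gave DC50 for 50% degradation and Dmax across the concentration range, both reported in letter bins.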

A further test concerns the target CRBN/DDB1 (Homo sapiens (Human), UniProt Q96SW2). The test can be described thus: IC50 measurements for binding to CRBN/DDB1 (HTRF). The following applies: His tagged CRBN+DDB, Cy5-labeled Thalidomide probe, one hour. Put shortly: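 HTRF competition binding with 2 nM His-tagged CRBN-DDB1 complex, 60 nM Cy5-thalidomide probe and 0.4 nM anti-His Tb cryptate in 50 mM HEPES pH 7.5, 1 mM TCEP, 0.01% Brij-35, 50 mM NaCl, 0.1% BSA. Read after 1 h at room temperature; IC50 from four-parameter dose-response fit.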
(In general: Time-resolved FRET reads energy transfer from a long-lived donor to a nearby acceptor.)

The structures appear in SMILES notation. Where only a bound is given, the exact number is not on record here.

The IC50 is the point on the concentration scale where inhibition reaches its midpoint. Read a high IC50 as lower potency.

CRBN/DDB1, sequence (Q96SW2 whole entry, species assumed): as the sequence (Q96SW2 whole entry) above
CRBN/DDB1, sequence (Q16531 whole entry partner, species assumed): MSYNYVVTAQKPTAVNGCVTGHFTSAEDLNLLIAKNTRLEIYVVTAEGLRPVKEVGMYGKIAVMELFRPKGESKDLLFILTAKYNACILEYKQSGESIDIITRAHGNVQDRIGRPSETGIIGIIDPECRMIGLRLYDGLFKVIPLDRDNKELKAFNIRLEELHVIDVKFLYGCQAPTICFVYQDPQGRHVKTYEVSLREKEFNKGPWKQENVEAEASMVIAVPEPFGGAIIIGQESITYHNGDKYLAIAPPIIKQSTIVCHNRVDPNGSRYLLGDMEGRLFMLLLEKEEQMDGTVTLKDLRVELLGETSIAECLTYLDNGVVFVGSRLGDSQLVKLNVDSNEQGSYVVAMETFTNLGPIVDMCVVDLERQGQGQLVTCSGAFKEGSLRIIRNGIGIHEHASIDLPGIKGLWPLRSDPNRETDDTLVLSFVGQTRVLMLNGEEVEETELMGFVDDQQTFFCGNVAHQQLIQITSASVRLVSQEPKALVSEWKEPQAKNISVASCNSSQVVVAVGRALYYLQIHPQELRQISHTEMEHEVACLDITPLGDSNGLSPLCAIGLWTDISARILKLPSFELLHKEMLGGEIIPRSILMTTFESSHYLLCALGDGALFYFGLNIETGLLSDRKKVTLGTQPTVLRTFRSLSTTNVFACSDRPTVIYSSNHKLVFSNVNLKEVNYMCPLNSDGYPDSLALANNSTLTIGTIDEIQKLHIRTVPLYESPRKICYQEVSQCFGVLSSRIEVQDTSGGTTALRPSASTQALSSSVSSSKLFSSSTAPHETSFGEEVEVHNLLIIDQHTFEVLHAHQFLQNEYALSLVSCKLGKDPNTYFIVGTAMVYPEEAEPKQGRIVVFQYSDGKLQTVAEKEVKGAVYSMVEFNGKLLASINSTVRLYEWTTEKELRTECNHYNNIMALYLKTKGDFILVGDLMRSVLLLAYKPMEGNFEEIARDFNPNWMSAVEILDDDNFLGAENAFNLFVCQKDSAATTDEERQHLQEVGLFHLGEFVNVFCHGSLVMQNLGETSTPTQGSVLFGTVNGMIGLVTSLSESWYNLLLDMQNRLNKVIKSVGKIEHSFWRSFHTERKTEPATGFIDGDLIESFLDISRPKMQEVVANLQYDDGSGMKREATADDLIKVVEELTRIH
IKZF2, sequence (Q9UKS7 whole entry): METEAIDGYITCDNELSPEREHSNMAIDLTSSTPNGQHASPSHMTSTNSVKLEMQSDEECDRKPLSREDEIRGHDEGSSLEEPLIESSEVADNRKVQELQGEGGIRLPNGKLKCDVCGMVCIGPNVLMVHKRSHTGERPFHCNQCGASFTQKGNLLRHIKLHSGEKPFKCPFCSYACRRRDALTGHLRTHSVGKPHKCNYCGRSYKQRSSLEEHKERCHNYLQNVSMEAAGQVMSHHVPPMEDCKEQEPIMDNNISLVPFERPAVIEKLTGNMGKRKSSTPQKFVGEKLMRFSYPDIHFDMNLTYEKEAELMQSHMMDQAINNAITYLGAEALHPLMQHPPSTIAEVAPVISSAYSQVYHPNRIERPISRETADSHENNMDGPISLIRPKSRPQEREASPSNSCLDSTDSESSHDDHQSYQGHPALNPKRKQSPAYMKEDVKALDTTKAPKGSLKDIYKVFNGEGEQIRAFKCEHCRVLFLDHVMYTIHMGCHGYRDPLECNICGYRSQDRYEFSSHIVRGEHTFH
IKZF2, sequence (Q96SW2 whole entry): as the sequence (Q96SW2 whole entry) above
IKZF2, sequence (Q16531 2-1140 partner): as the sequence (Q16531 2-1140 partner) above

On to `O=C1CCC(N2Cc3cc(-c4cc(CN5CCCC5)c5ccn(CCOCc6ccccc6)c5n4)ccc3C2=O)C(=O)N1` (stereo not drawn) [Example 130, 3-(5-(1-(2-(benzyloxy)ethyl)-4-(pyrrolidin-1-ylmethyl)-1H-pyrrolo[2,3-b]pyridin-6-yl)-1-oxoisoindolin-2-yl) piperidine-2,6-dione], for which the DC50 at IKZF1 is above 10000 nM; on IKZF2, 1 to 10 nM. In addition, the Dmax on IKZF1 is below 20%; at IKZF2 it was 40 to 60%. The molecule also came in with a half-inhibitory concentration (IC50) on CRBN/DDB1 of 100 to 500 nM.

Take `COc1n[nH]c2c(CN3CCCC3)cc(-c3ccc4c(c3)CN(C3CCC(=O)NC3=O)C4=O)nc12` (stereo not drawn) [Example 235, 3-(5-(3-methoxy-7-(pyrrolidin-1-ylmethyl)-1H-pyrazolo[4,3-b]pyridin-5-yl)-1-oxoisoindolin-2-yl) piperidine-2,6-dione]: at IKZF1, the DC50 lay in the range of 100 to 1000 nM and the Dmax fell in the range of 20 to 40%. In addition, at IKZF2, the DC50 is 1 to 10 nM and the Dmax lay in the range of 60 to 80%. This molecule also displayed an IC50 at CRBN/DDB1 of 5000 to 10000 nM.

For `O=C1CCC(N2Cc3cc(-c4cc(CN5CCCC5)c5c(n4)CCCC5)ccc3C2=O)C(=O)N1` (stereo not drawn) [Example 79, 3-(1-oxo-5-(4-(pyrrolidin-1-ylmethyl)-5,6,7,8-tetrahydroquinolin-2-yl)isoindolin-2-yl) piperidine-2,6-dione], at IKZF1, the DC50 was above 10000 nM and the Dmax was in the range of 20 to 40%. Besides, on IKZF2, the DC50 was below 1 nM and the Dmax was above 80%. Also, the IC50 on CRBN/DDB1 was 100 to 500 nM.

As to `O=C1CCC(N2Cc3cc(-c4cc(CN5CCCC5)c5ccn(C6CCCCC6)c5n4)ccc3C2=O)C(=O)N1` (stereo not drawn) [Example 166, 3-(5-(1-cyclohexyl-4-(pyrrolidin-1-ylmethyl)-1H-pyrrolo[2,3-b]pyridin-6-yl)-1-oxoisoindolin-2-yl) piperidine-2,6-dione], at IKZF1, the DC50 was above 10000 nM and the Dmax was below 20%. Besides, at IKZF2, the DC50 lay in the range of 1 to 10 nM and the Dmax fell in the range of 40 to 60%. Moreover, the IC50 on CRBN/DDB1 was in the range of 100 to 500 nM.

`O=C1CCC(N2Cc3cc(-c4cc(CN5CCCC5)c5ccn(CCO)c5n4)ccc3C2=O)C(=O)N1` (stereo not drawn) [Example 131, 3-(5-(1-(2-hydroxyethyl)-4-(pyrrolidin-1-ylmethyl)-1H-pyrrolo[2,3-b]pyridin-6-yl)-1-oxoisoindolin-2-yl) piperidine-2,6-dione]: the DC50 on IKZF1 is above 10000 nM; at IKZF2, 10 to 100 nM. Also, the Dmax is below 20% at IKZF1 and 60 to 80% on IKZF2. Moreover, the 50% inhibitory concentration (IC50) on CRBN/DDB1 lay in the range of 1000 to 5000 nM.

Turning to `O=C1CCC(N2Cc3cc(-c4cc(CN5CCCC5)c5cc[nH]c5n4)ccc3C2=O)C(=O)N1` (stereo not drawn) [Example 59, 3-(1-oxo-5-(4-(pyrrolidin-1-ylmethyl)-1H-pyrrolo[2,3-b]pyridin-6-yl)isoindolin-2-yl) piperidine-2,6-dione], at IKZF1, the DC50 was above 10000 nM and the Dmax lay within 20 to 40%. Also, on IKZF2, the DC50 fell in the range of 1 to 10 nM and the Dmax is above 80%. In addition, the IC50 on CRBN/DDB1 is 100 to 500 nM.

For `CC(C)Cn1ccc2c(CN3CCCC3)cc(-c3ccc4c(c3)CN(C3CCC(=O)NC3=O)C4=O)nc21` (stereo not drawn) [Example 140, 3-(5-(1-isobutyl-4-(pyrrolidin-1-ylmethyl)-1H-pyrrolo[2,3-b]pyridin-6-yl)-1-oxoisoindolin-2-yl) piperidine-2,6-dione], on IKZF1, the DC50 is above 10000 nM and the Dmax is below 20%. At IKZF2, the DC50 is below 1 nM and the Dmax was in the range of 20 to 40%. This molecule also came in with an IC50 at CRBN/DDB1 of 100 to 500 nM.

Take `Cn1ccc2c(CN3CC4CC4C3)cc(-c3ccc4c(c3)CN(C3CCC(=O)NC3=O)C4=O)nc21` (stereo not drawn) [Example 66, 3-(5-(4-((3-azabicyclo[3.1.0]hexan-3-yl)methyl)-1-methyl-1H-pyrrolo[2,3-b]pyridin-6-yl)-1-oxoisoindolin-2-yl) piperidine-2,6-dione]: the DC50 was above 10000 nM at IKZF1 and below 1 nM on IKZF2. For the same molecule, the Dmax at IKZF1 was 20 to 40%; on IKZF2, above 80%. Also, the 50% inhibitory concentration (IC50) at CRBN/DDB1 is 100 to 500 nM.

In the case of `N#CCn1ccc2c(CN3CCCC3)cc(-c3ccc4c(c3)CN(C3CCC(=O)NC3=O)C4=O)nc21` (stereo not drawn) [Example 133, 2-(6-(2-(2,6-dioxopiperidin-3-yl)-1-oxoisoindolin-5-yl)-4-(pyrrolidin-1-ylmethyl)-1H-pyrrolo[2,3-b]pyridin-1-yl) acetonitrile], at IKZF1, the DC50 was above 10000 nM and the Dmax was below 20%. Besides, on IKZF2, the DC50 was 1 to 10 nM and the Dmax is 60 to 80%. The molecule further had a 50% inhibitory concentration (IC50) on CRBN/DDB1 of 100 to 500 nM.

In the case of `O=C1CCC(N2Cc3cc(-c4cc(CN5CCC(O)C5)c5ccn(C6CC6)c5n4)ccc3C2=O)C(=O)N1` (stereo not drawn) [Example 142, 3-(5-(1-cyclopropyl-4-((3-hydroxypyrrolidin-1-yl)methyl)-1H-pyrrolo[2,3-b]pyridin-6-yl)-1-oxoisoindolin-2-yl) piperidine-2,6-dione], the DC50 was above 10000 nM at IKZF1 and 1 to 10 nM at IKZF2. For the same molecule, the Dmax on IKZF1 is below 20%; at IKZF2, above 80%. The molecule further yielded an IC50 at CRBN/DDB1 of 500 to 1000 nM.

For the molecule `O=C1CCC(N2Cc3cc(-c4cc(CN5CC(O)C5)c5cc[nH]c5n4)ccc3C2=O)C(=O)N1` (stereo not drawn) [Example 111, 3-(5-(4-((3-hydroxyazetidin-1-yl)methyl)-1H-pyrrolo[2,3-b]pyridin-6-yl)-1-oxoisoindolin-2-yl) piperidine-2,6-dione], on IKZF1, the DC50 was above 10000 nM and the Dmax was below 20%. Moreover, on IKZF2, the DC50 fell in the range of 10 to 100 nM and the Dmax fell in the range of 60 to 80%. Also, the IC50 on CRBN/DDB1 lay within 100 to 500 nM.

Take `Cn1ncc2c(CN3CCCC3)cc(-c3ccc4c(c3)CN(C3CCC(=O)NC3=O)C4=O)nc21` (stereo not drawn) [Example 313, 3-(5-(1-methyl-4-(pyrrolidin-1-ylmethyl)-1H-pyrazolo[3,4-b]pyridin-6-yl)-1-oxoisoindolin-2-yl) piperidine-2,6-dione]: at IKZF1, the DC50 lay within 10 to 100 nM and the Dmax was 20 to 40%. Also, at IKZF2, the DC50 was below 1 nM and the Dmax is above 80%. Also, on CRBN/DDB1, the IC50 is 1000 to 5000 nM.

On to `CC(C)C1CCN(Cc2cc(-c3ccc4c(c3)CN(C3CCC(=O)NC3=O)C4=O)nc3[nH]ccc23)C1` (stereo not drawn) [Example 146], for which, at IKZF1, the DC50 is 1 to 10 nM and the Dmax is 40 to 60%. In addition, on IKZF2, the DC50 lay within 1 to 10 nM and the Dmax is above 80%. The IC50 on CRBN/DDB1 is 100 to 500 nM.

`O=C1CCC(N2Cc3cc(-c4cc(CN5CCC(O)CC5)c5ccn(C6CC6)c5n4)ccc3C2=O)C(=O)N1` (stereo not drawn) [Example 159, 3-(5-(1-cyclopropyl-4-((4-hydroxypiperidin-1-yl)methyl)-1H-pyrrolo[2,3-b]pyridin-6-yl)-1-oxoisoindolin-2-yl) piperidine-2,6-dione]: at IKZF1, the DC50 is 10 to 100 nM and the Dmax lay within 20 to 40%. Further, on IKZF2, the DC50 lay within 1 to 10 nM and the Dmax was in the range of 60 to 80%. The same molecule returned an IC50 on CRBN/DDB1 of 100 to 500 nM.

Consider `O=C1CCC(N2Cc3cc(-c4cc(CN5CCCC5)c5ccn(C6CCOCC6)c5n4)ccc3C2=O)C(=O)N1` (stereo not drawn) [Example 171, 3-(1-oxo-5-(4-(pyrrolidin-1-ylmethyl)-1-(tetrahydro-2H-pyran-4-yl)-1H-pyrrolo[2,3-b]pyridin-6-yl)isoindolin-2-yl) piperidine-2,6-dione], for which, on IKZF1, the DC50 is above 10000 nM and the Dmax is below 20%. Also, on IKZF2, the DC50 was in the range of 1 to 10 nM and the Dmax fell in the range of 60 to 80%. The same molecule registered an IC50 at CRBN/DDB1 of 100 to 500 nM.

On to `CN(C)C1CCN(Cc2cc(-c3ccc4c(c3)CN(C3CCC(=O)NC3=O)C4=O)nc3c2ccn3C2COC2)CC1` (stereo not drawn) [Example 190, 3-(5-(4-((4-(dimethylamino)piperidin-1-yl)methyl)-1-(oxetan-3-yl)-1H-pyrrolo[2,3-b]pyridin-6-yl)-1-oxoisoindolin-2-yl) piperidine-2,6-dione], for which, on IKZF1, the DC50 was above 10000 nM and the Dmax is below 20%. Moreover, at IKZF2, the DC50 lay in the range of 10 to 100 nM and the Dmax was in the range of 40 to 60%. On CRBN/DDB1, this molecule showed an IC50 of 100 to 500 nM.

In the case of `O=C1CCC(N2Cc3cc(-c4cc(CN5CCCC5)c5c(n4)C(=O)NC5)ccc3C2=O)C(=O)N1` (stereo not drawn) [Example 233, 3-(1-ox0-5-(7-oxo-4-(pyrrolidin-1-ylmethyl)-6,7-dihydro-5H-pyrrolo[3,4-b]pyridin-2-yl)isoindolin-2-yl) piperidine-2,6-dione], on IKZF1, the DC50 was above 10000 nM and the Dmax was below 20%. Besides, at IKZF2, the DC50 was above 10000 nM and the Dmax is below 20%. In addition, the half-inhibitory concentration (IC50) at CRBN/DDB1 is 1000 to 5000 nM.

Regarding `Cn1ccc2c(CN3CC4CCCC4C3)cc(-c3ccc4c(c3)CN(C3CCC(=O)NC3=O)C4=O)nc21` (stereo not drawn) [Example 72, 3-(5-(4-((hexahydrocyclopenta[c]pyrrol-2 (1H)-yl)methyl)-1-methyl-1H-pyrrolo[2,3-b]pyridin-6-yl)-1-oxoisoindolin-2-yl) piperidine-2,6-dione], at IKZF1, the DC50 was above 10000 nM and the Dmax is 40 to 60%. Further, on IKZF2, the DC50 was below 1 nM and the Dmax is above 80%. For the same molecule, the IC50 at CRBN/DDB1 was 100 to 500 nM.
